Each structure is given as a SMILES string. Bounds are passed on as bounds.

The target of this experiment is T1, mineralocorticoid receptor (MR) (Homo sapiens, UniProt P08235).
T1 construct: expressed in transfected cells; host or cells: Huh7 (human liver cells)
T1 sequence (P08235 726-964 limits assumed): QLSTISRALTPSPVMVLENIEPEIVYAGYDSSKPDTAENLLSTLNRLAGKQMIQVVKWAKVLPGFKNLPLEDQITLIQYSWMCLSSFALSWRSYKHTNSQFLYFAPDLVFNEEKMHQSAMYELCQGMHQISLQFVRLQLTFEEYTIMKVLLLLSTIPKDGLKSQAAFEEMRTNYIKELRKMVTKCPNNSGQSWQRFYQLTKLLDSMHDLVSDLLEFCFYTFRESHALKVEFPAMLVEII
In words: Cell-based Gal4 response element-controlled luciferase reporter assay (MR antagonism). To be noted: Huh7 human liver cells transfected with Gal4 DBD-MR LBD fusion and luciferase reporter; block of agonist-induced activation; overnight incubation. An outline of the steps: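 Transiently transfected Huh7 cells were treated with agonist at 70-80% of full activation plus compounds for 18-20 h in medium with charcoal/dextran-stripped serum. Luciferase read-out was normalized to β-galactosidase (ONPG, OD420); IC50 came from curve fitting.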
Broadly, the IC50 is the concentration at which inhibition is half-maximal. Consider `Cc1cc(N2N=C3c4ccc(C(=O)O)cc4OC[C@H]3[C@H]2C2CCCC2)ccc1C#N` (single isomer, unassigned) [Example 63], for which the IC50 was over 1000 nM.

Turning to `CCOC(=O)c1ccc2c(c1)CCC1C2=NN(c2ccc(C#N)c(Cl)c2)C1c1ccc(F)cc1` (centres unmarked) [Example 1, ethyl 2-(3-chloro-4-cyanophenyl)-3-(4-fluorophenyl)-3,3a,4,5-tetrahydro-2H-benzo[g]indazole-7-carboxylate], the IC50 amounted to 1070 nM.

Turning to `N#Cc1ccc(N2N=C3c4ccc(C(=O)O)cc4CC[C@@H]3[C@@H]2c2ccc(F)cc2)cc1Cl` [Example 3, (3R,3aR)-2-(3-chloro-4-cyanophenyl)-3-(4-fluorophenyl)-3,3a,4,5-tetrahydro-2H-benzo[g]indazole-7-carboxylic acid], the IC50 turned out to be 40.7 nM.

For the compound `N#Cc1ccc(N2N=C3c4ccc(C(=O)O)cc4CC[C@H]3[C@H]2c2ccc(F)cc2)cc1Cl` [Example 4, (3S,3aS)-2-(3-chloro-4-cyanophenyl)-3-(4-fluorophenyl)-3,3a,4,5-tetrahydro-2H-benzo[g]indazole-7-carboxylic acid], the IC50 was determined as 3500 nM.

`Cc1cc(N2N=C3c4ccc(C(=O)O)cc4CC[C@@H]3[C@@H]2c2ccc(F)cc2)ccc1C#N` [Example 7, (3R,3aR)-2-(4-cyano-3-methylphenyl)-3-(4-fluorophenyl)-3,3a,4,5-tetrahydro-2H-benzo[g]indazole-7-carboxylic acid]: the IC50 amounted to 17.2 nM.

Consider `Cc1cc(N2N=C3c4ccc(C(=O)O)cc4CC[C@H]3[C@H]2c2ccc(F)cc2)ccc1C#N` [Example 8, (3S,3aS)-2-(4-cyano-3-methylphenyl)-3-(4-fluorophenyl)-3,3a,4,5-tetrahydro-2H-benzo[g]indazole-7-carboxylic acid], for which the IC50 was found to be 2740 nM.

With `N#Cc1ccc(N2N=C3c4ccc(C(=O)O)cc4CC[C@@H]3[C@@H]2c2ccc(F)cc2)cc1` [Example 11, (3R,3aR)-2-(4-cyanophenyl)-3-(4-fluorophenyl)-3,3a,4,5-tetrahydro-2H-benzo[g]indazole-7-carboxylic acid], the IC50 was determined as 205 nM.

In the case of `N#Cc1ccc(N2N=C3c4ccc(C(=O)O)cc4CC[C@H]3[C@H]2c2ccc(F)cc2)cc1` [Example 12, (3S,3aS)-2-(4-cyanophenyl)-3-(4-fluorophenyl)-3,3a,4,5-tetrahydro-2H-benzo[g]indazole-7-carboxylic acid], the 50% inhibitory concentration (IC50) was over 10000 nM.

As to `N#Cc1ccc(N2N=C3c4ccc(C(=O)O)cc4CC[C@@H]3[C@@H]2C2CCCC2)cc1` [Example 19, (3S,3aR)-2-(4-cyanophenyl)-3-cyclopentyl-3,3a,4,5-tetrahydro-2H-benzo[g]indazole-7-carboxylic acid], the 50% inhibitory concentration (IC50) is 37.6 nM.

As to `N#Cc1ccc(N2N=C3c4ccc(C(=O)O)cc4CC[C@H]3[C@H]2C2CCCC2)cc1` [Example 20, (3R,3aS)-2-(4-cyanophenyl)-3-cyclopentyl-3,3a,4,5-tetrahydro-2H-benzo[g]indazole-7-carboxylic acid], the IC50 turned out to be 2880 nM.

In the case of `COc1cc(N2N=C3c4ccc(C(=O)O)cc4CC[C@@H]3[C@@H]2C2CCCC2)ccc1C#N` [Example 26, (3S,3aR)-2-(4-cyano-3-methoxyphenyl)-3-cyclopentyl-3,3a,4,5-tetrahydro-2H-benzo[g]indazole-7-carboxylic acid], the half-inhibitory concentration (IC50) is 13 nM.

Take `COc1cc(N2N=C3c4ccc(C(=O)O)cc4CC[C@H]3[C@H]2C2CCCC2)ccc1C#N` [Example 27, (3R,3aS)-2-(4-cyano-3-methoxyphenyl)-3-cyclopentyl-3,3a,4,5-tetrahydro-2H-benzo[g]indazole-7-carboxylic acid]: the IC50 was 305 nM.

With `Cc1ccc([C@H]2[C@H]3CCc4cc(C(=O)O)ccc4C3=NN2c2ccc(C#N)c(Cl)c2)o1` [Example 40, (3R,3aR)-2-(3-chloro-4-cyanophenyl)-3-(5-methyl-2-furyl)-3,3a,4,5-tetrahydro-2H-benzo[g]indazole-7-carboxylic acid], the 50% inhibitory concentration (IC50) amounted to 6 nM.

Regarding `Cc1ccc([C@@H]2[C@@H]3CCc4cc(C(=O)O)ccc4C3=NN2c2ccc(C#N)c(Cl)c2)o1` [Example 41, (3S,3aS)-2-(3-chloro-4-cyanophenyl)-3-(5-methyl-2-furyl)-3,3a,4,5-tetrahydro-2H-benzo[g]indazole-7-carboxylic acid], the IC50 is over 1000 nM.

Consider `N#Cc1ccc(N2N=C3c4ccc(C(=O)O)cc4CC[C@@H]3[C@@H]2c2ccco2)cc1Cl` [Example 44, (3R,3aR)-2-(3-chloro-4-cyanophenyl)-3-(2-furyl)-3,3a,4,5-tetrahydro-2H-benzo[g]indazole-7-carboxylic acid], for which the IC50 amounted to 16 nM.

Take `N#Cc1ccc(N2N=C3c4ccc(C(=O)O)cc4CC[C@H]3[C@H]2c2ccco2)cc1Cl` [Example 45, (3S,3aS)-2-(3-chloro-4-cyanophenyl)-3-(2-furyl)-3,3a,4,5-tetrahydro-2H-benzo[g]indazole-7-carboxylic acid]: the IC50 was over 1000 nM.

Turning to `N#Cc1ccc(N2N=C3c4ccc(C(=O)O)cc4CC[C@@H]3[C@@H]2c2ccoc2)cc1Cl` [Example 47, (3R,3aR)-2-(3-chloro-4-cyanophenyl)-3-(3-furyl)-3,3a,4,5-tetrahydro-2H-benzo[g]indazole-7-carboxylic acid], the IC50 amounted to 18 nM.

On to `N#Cc1ccc(N2N=C3c4ccc(C(=O)O)cc4CC[C@H]3[C@H]2c2ccoc2)cc1Cl` [Example 48, (3S,3aS)-2-(3-chloro-4-cyanophenyl)-3-(3-furyl)-3,3a,4,5-tetrahydro-2H-benzo[g]indazole-7-carboxylic acid], for which the IC50 was over 1000 nM.

In the case of `N#Cc1ccc(N2N=C3c4ccc(C(=O)O)cc4OC[C@@H]3[C@@H]2c2ccc(F)cc2)cc1Cl` [Example 56, (3R,3aR)-2-(3-chloro-4-cyanophenyl)-3-(4-fluorophenyl)-2,3,3a,4-tetrahydrochromeno[4,3-c]pyrazole-7-carboxylic acid], the IC50 worked out at 302 nM.

On to `N#Cc1ccc(N2N=C3c4ccc(C(=O)O)cc4OC[C@H]3[C@H]2c2ccc(F)cc2)cc1Cl` [Example 57, (3S,3aS)-2-(3-chloro-4-cyanophenyl)-3-(4-fluorophenyl)-2,3,3a,4-tetrahydrochromeno[4,3-c]pyrazole-7-carboxylic acid], for which the IC50 was 3510 nM.

Turning to `N#Cc1ccc(N2N=C3c4ccc(C(=O)O)cc4OC[C@@H]3[C@@H]2c2ccc(F)cc2)cc1` [Example 59, (3R,3aR)-2-(4-cyanophenyl)-3-(4-fluorophenyl)-2,3,3a,4-tetrahydrochromeno[4,3-c]pyrazole-7-carboxylic acid], the IC50 was over 1000 nM.

On to `N#Cc1ccc(N2N=C3c4ccc(C(=O)O)cc4OC[C@H]3[C@H]2c2ccc(F)cc2)cc1` [Example 60, (3S,3aS)-2-(4-cyanophenyl)-3-(4-fluorophenyl)-2,3,3a,4-tetrahydrochromeno[4,3-c]pyrazole-7-carboxylic acid], for which the 50% inhibitory concentration (IC50) was over 1000 nM.

As for `N#Cc1ccc(N2N=C3c4ccc(C(=O)O)cc4OC[C@@H]3[C@@H]2C2CCCC2)cc1Cl` [Example 65, (3S,3aR)-2-(3-chloro-4-cyanophenyl)-3-cyclopentyl-2,3,3a,4-tetrahydrochromeno[4,3-c]pyrazole-7-carboxylic acid], the half-inhibitory concentration (IC50) is 38 nM.

Regarding `N#Cc1ccc(N2N=C3c4ccc(C(=O)O)cc4OC[C@H]3[C@H]2C2CCCC2)cc1Cl` [Example 66, (3R,3aS)-2-(3-chloro-4-cyanophenyl)-3-cyclopentyl-2,3,3a,4-tetrahydrochromeno[4,3-c]pyrazole-7-carboxylic acid], the IC50 amounted to 3350 nM.

As to `N#Cc1ccc(N2N=C3c4ccc(C(=O)O)cc4OC[C@@H]3[C@@H]2C2CCCC2)cc1` [Example 71, (3S,3aR)-2-(4-cyanophenyl)-3-cyclopentyl-2,3,3a,4-tetrahydrochromeno[4,3-c]pyrazole-7-carboxylic acid], the IC50 amounted to 205 nM.

Take `N#Cc1ccc(N2N=C3c4ccc(C(=O)O)cc4OC[C@H]3[C@H]2C2CCCC2)cc1` [Example 72, (3R,3aS)-2-(4-cyanophenyl)-3-cyclopentyl-2,3,3a,4-tetrahydrochromeno[4,3-c]pyrazole-7-carboxylic acid]: the half-maximal inhibitory concentration (IC50) was 8100 nM.

With `Cc1cc(N2N=C3c4ccc(C(=O)O)cc4OCC3C2C(C)C)ccc1C#N` (centres unmarked) [Example 73, 2-(4-cyano-3-methylphenyl)-3-isopropyl-2,3,3a,4-tetrahydrochromeno[4,3-c]pyrazole-7-carboxylic acid], the concentration for half-maximal inhibition (IC50) was determined as 167 nM.

For the compound `Cc1cc(N2N=C3c4ccc(O)cc4CCC3C2c2ccc(F)cc2)ccc1C#N` (centres unmarked) [Example 80], the half-inhibitory concentration (IC50) was found to be 49 nM.

With `Cc1cc(N2N=C3c4ccc(O)cc4CC[C@@H]3[C@@H]2c2ccc(F)cc2)ccc1C#N` [Example 81, 4-((3R,3aR)-3-(4-fluorophenyl)-7-hydroxy-3,3a,4,5-tetrahydrobenzo[g]indazol-2-yl)-2-methylbenzonitrile], the IC50 was 35 nM.

Regarding `Cc1cc(N2N=C3c4ccc(O)cc4CC[C@H]3[C@H]2c2ccc(F)cc2)ccc1C#N` [Example 82, 4-((3S,3aS)-3-(4-fluorophenyl)-7-hydroxy-3,3a,4,5-tetrahydrobenzo[g]indazol-2-yl)-2-methylbenzonitrile], the concentration for half-maximal inhibition (IC50) was over 1000 nM.

In the case of `N#Cc1ccc(N2N=C3c4ccc(O)cc4CC[C@@H]3[C@@H]2c2ccc(F)cc2)cc1C(F)(F)F` [Example 84, 4-((3R,3aR)-3-(4-fluorophenyl)-7-hydroxy-3,3a,4,5-tetrahydrobenzo[g]indazol-2-yl)-2-(trifluoromethyl)benzonitrile], the IC50 was determined as 113 nM.

As to `N#Cc1ccc(N2N=C3c4ccc(O)cc4CC[C@H]3[C@H]2c2ccc(F)cc2)cc1C(F)(F)F` [Example 85, 4-((3S,3aS)-3-(4-fluorophenyl)-7-hydroxy-3,3a,4,5-tetrahydrobenzo[g]indazol-2-yl)-2-(trifluoromethyl)benzonitrile], the IC50 was over 1000 nM.
